Patent US20250339433A1, “PHARMACEUTICAL COMPOSITION FOR PREVENTION, ALLEVIATION, OR TREATMENT OF CANCER” (JBKLAB CO.,LTD., priority 2021, published 2025)

Experiments:
Huh-7 = test: Combination with sorafenib, cell viability / caspase-3 activity; type: cell-based, human
Protocol: (§1) Human liver cancer cell lines (SK Hep1 and Huh-7) were treated with control (no treatment), 5 μM of the compound of Example 1, 0.1 μM of sorafenib, and 5 μM of the compound of Example 1/0.1 μM of sorafenib, and the cell viability of SK Hep1 and Huh-7 was confirmed.

SK Hep1 = test: as above; type: cell-based, human
Protocol: as §1

BT20 = test: Breast cancer cell viability assay (WST-8); type: cell-based, human; settings: dose dependently
Protocol: (§2) An experiment was performed to confirm the growth inhibitory effect of the compounds of Examples 1 and 2, the active ingredients of the pharmaceutical composition of the present invention, on breast cancer cell lines through cell viability assay.
(§3) Specifically, the cell viability assay was performed as follows. BT20, a human-derived breast cancer cell line, and MDA-MB-231, a TNBC cell line, were each seeded in 96-well plates at the density of 5×10^3 cells/well and cultured for 24 hours. […] At the end of the culture, 100 μl of WST-8 solution was added to each well of the plate, and the absorbance was measured with a microplate reader using a 450 nm optical filter to measure the formazan produced by the reducing factors in living cells.

MDA-MB-231 [1] = test: Breast cancer cell viability assay (WST-8); type: cell-based, human; settings: dose dependently
Protocol: as §2, §3

MDA-MB-453 = test: Breast cancer cell viability assay (WST-8); type: cell-based; settings: MDA-MB-453, 24 hours, dose dependently
Protocol: Specifically, the cell viability assay was performed as follows. BT20, a human-derived breast cancer cell line, and MDA-MB-231, a TNBC cell line, were each seeded in 96-well plates at the density of 5×10^3 cells/well and cultured for 24 hours. Then, I-bet 762 and the compounds were treated thereto at different concentrations and cultured for 48 hours. At the end of the culture, 100 μl of WST-8 solution was added to each well of the plate, and the absorbance was measured with a microplate reader using a 450 nm optical filter to measure the formazan produced by the reducing factors in living cells.
FIGS. 10A and 10B show the cell viability of MDA-MB-231, MDA-MB-453, and BT-20 after 24 hours of treatment with the compound of Example 3.

A549 = test: Cell viability assay (WST-8), cytotoxicity on cancer cell lines; type: cell-based, human
Protocol: (§4) The cytotoxicity of the compound of Example 1 against various cancer cell lines was evaluated. Etoposide, sold as an anticancer agent, was used as a control group drug. Specifically, the cell viability assay was performed as follows. A549, SK-OV-3, SK-MEL-2, and HCT15 cell lines were seeded in 96 well plates at the density of 5×10^3 cells per well and cultured for 24 hours. Then, the plates were treated with the compound of Example 1 or etoposide at different concentrations, followed by culture for 24 and 48 hours. At the end of the culture, 100 μl of WST-8 solution was added to each well of the plate, and the absorbance was measured with a microplate reader using a 450 nm optical filter to measure the formazan produced by the reducing factors in living cells. • A549: human non-small cell lung cancer cells • SK-OV-3: human ovarian cancer cells • SK-MEL-2: human melanoma cells • HCT15: human colorectal cancer adenocarcinoma cells

HCT15 = test: as above; type: cell-based, human; settings: HCT15, 24 and 48 hours, dose dependently
Protocol: as §4

SK-MEL-2 = test: as above; type: cell-based, human; settings: SK-MEL-2, 24 and 48 hours, dose dependently
Protocol: as §4

SK-OV-3 = test: as above; type: cell-based, human; settings: SK-OV-3, 24 and 48 hours, dose dependently
Protocol: as §4

MDA-MB-231 [2] = test: Breast cancer growth inhibition in xenograft nude mice; type: in vivo; settings: 25 mpk intravenously
Protocol: An experiment was performed to confirm the tumor inhibition of the compound of Example 1, the active ingredient of the pharmaceutical composition of the present invention, on a xenograft tumor sample of breast cancer cells (MBA-MB-231), a human-derived TNBC cell line.
Specifically, to confirm the effect of the compound of Example 1, which is the active ingredient of the pharmaceutical composition provided by the present invention, on the inhibition of breast cancer cell growth, an experiment was performed using 80 female 5-week-old xenograft Balb/c nude mice. The experimental xenograft Balb/c nude mice lacks T cells, the immune cells, were selected as an animal model suitable for transplanting human cancer cells. At the time of administration, animals within ±20% of the total average body weight were selected, and tumor growth was checked twice a week on the surface, and the size of the tumor was measured with a vernier caliper for 3 weeks. In addition, the compound of Example 1 was administered intravenously at a concentration of 25 mpk, and 30% PEG was used as a solvent.

MDA-MB-231 [3] = test: Number of mitotic figures / apoptotic bodies in xenograft tumor tissue (H&E); type: in vivo, BALB/c-nude mice; settings: for Mitotic index: sum of five areas at x400
Protocol: An experiment was performed to evaluate the tumor necrosis effect of the compound of Example 1 by measuring the number of apoptotic bodies in tumors and H&E staining of tumor tissues in BALB/c-nude mice injected with cancer cell lines. […] After calculating the sum of the measurements and expressing them as individual values, statistical comparative analysis was performed using GraphPad Prism 5. As a result of observing the apoptotic body, it was observed that the cells were shrunk and divided (blebs) and that empty space (hollow) surrounded the periphery. […] Since the frequency of mitotic figures in tumor tissue is related to the dividing ability of tumor cells, it can reflect the degree of malignancy of the tumor.

OVCAR-3 = test: Combination with cisplatin, cell viability; type: cell-based, human
Protocol: (§5) Human ovarian cancer cell lines (SKOV-3 and OVCAR-3) were treated with control (no treatment), 0.1 μM of the compound of Example 1, 10 μM of cisplatin, […], and the cell viability of SKOV-3 and OVCAR-3 was confirmed.

SKOV-3 = test: Combination with cisplatin, cell viability; type: cell-based, human
Protocol: as §5

Compound: CNC(=O)c1cc(Oc2ccc(NC(=O)Nc3ccc(Cl)c(C(F)(F)F)c3)cc2)ccn1 [sorafenib, reference compound]
- cell viability (Huh-7; Huh-7, 0.1 μM sorafenib alone): suppressed
- cell viability (SK Hep1; SK Hep1, 0.1 μM sorafenib alone): suppressed

Compound: O=C(Nc1n[nH]c2ncc(-c3cnn(C4CCNCC4)c3)cc12)c1ccc(F)cc1 [Example 3, 4-fluoro-N-(5-(1-(piperidin-4-yl)-1H-pyrazol-4-yl)-1H-pyrazolo[3,4-b]pyridin-3-yl)benzamide]
- cell viability (BT20; BT-20, 24 hours): suppressed
- cell viability (MDA-MB-231 [1]; MDA-MB-231, 24 hours): suppressed
- cell viability (MDA-MB-453): suppressed

Compound: c1nc(Nc2ccc(N3CCCC3)cc2)c2cc[nH]c2n1 [Example 1, N-(4-(pyrrolidin-1-yl)phenyl)-7H-pyrrolo[2,3-d]pyrimidin-4-amine]
- toxicity to cancer cell line (cell viability) (A549; A549, 24 and 48 hours, dose dependently): excellent toxicity
- toxicity compared with etoposide (A549; various cancer cell lines (A549, SK-OV-3, SK-MEL-2, HCT15)): equally or more effective than etoposide
- toxicity to cancer cell line (cell viability) (HCT15): excellent toxicity
- toxicity to cancer cell line (cell viability) (SK-MEL-2): excellent toxicity
- toxicity to cancer cell line (cell viability) (SK-OV-3): excellent toxicity
- biological toxicity (change in body weight) (MDA-MB-231 [2]; 3 weeks): no biological toxicity
- cachexia phenomenon (MDA-MB-231 [2]; 3 weeks): not observed
- tumor growth (change in tumor size/volume) (MDA-MB-231 [2]; vs CTL): significantly suppressed
- tumor growth (change in tumor weight) (MDA-MB-231 [2]; vs CTL): significantly suppressed
- number of apoptotic bodies (MDA-MB-231 [3]; T1 and T2 groups compared to NC, dose dependently): higher
- Mitotic index (MDA-MB-231 [3]; T1 group (2 times/week)): 25.5 ± 10.2
- Mitotic index (MDA-MB-231 [3]; T2 group (3 times/week)): 20.8 ± 7.4
- cell viability (OVCAR-3; OVCAR-3, 0.1 μM Example 1 in combination with 10 μM cisplatin): further inhibited (synergistic effect)
- cell viability (OVCAR-3; OVCAR-3, 0.1 μM alone): suppressed
- cell viability (SKOV-3; SKOV-3, 0.1 μM Example 1 in combination with 10 μM cisplatin): further inhibited (synergistic effect)
- cell viability (SKOV-3; SKOV-3, 0.1 μM alone): suppressed
- cell viability (Huh-7; Huh-7, 5 μM Example 1 in combination with 0.1 μM sorafenib): further inhibited (synergistic effect)
- cell viability (Huh-7; Huh-7, 5 μM alone): suppressed
- cell viability (SK Hep1; SK Hep1, 5 μM Example 1 in combination with 0.1 μM sorafenib): further inhibited (synergistic effect)
- cell viability (SK Hep1; SK Hep1, 5 μM alone): suppressed

Compound: N.N.[Cl][Pt][Cl] [cisplatin, reference compound]
- cell viability (OVCAR-3; OVCAR-3, 1 μM of cisplatin alone): suppressed
- cell viability (SKOV-3; SKOV-3, 1 μM of cisplatin alone): suppressed

Compound: CN1CCN(c2ccc(C(=O)Nc3n[nH]c4ncc(Br)cc34)cc2)CC1 [Example 2, N-(5-bromo-1H-pyrazolo[3,4-b]pyridin-3-yl)-4-(4-methylpiperazin-1-yl)benzamide]
- cell viability (BT20; BT20, 24 and 48 hours): inhibited the cell viability
- cell viability (MDA-MB-231 [1]; MDA-MB-231, 24 and 48 hours): inhibited the cell viability
